In the supplement of paper PMC10307832:

How the values were obtained:
Experiment in all cases: relative viability (nuclei count vs DMSO), 5 days (fraction); higher = more cells survive
[1] = compound: Cn1cc(-c2cnc3ccc4ccc(CS(=O)(=O)NCc5ccccn5)cc4c(=O)c3c2)cn1 [MK-8033] + Cc1nc(NC(=O)N2CCC[C@H]2C(N)=O)sc1-c1ccnc(C(C)(C)C(F)(F)F)c1 [Alpelisib] (partner 2 µM)
Procedure, shortened: (§1)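 Lung cancer cell lines in 1536-well plates got either a single drug or a fixed anchor-drug dose together with five library-drug doses (not always all listed) in √10 steps, by pin tool, on the day after seeding. Nuclei were counted after 5 days, and relative viability is the treated-to-vehicle ratio of nuclei counts. Values are medians of duplicate plates.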

[2] = compound: CC[C@@H](C)CNCC(=O)N1CCC2=C([C@@H]1COC3=CC=CC(=C3)C)C=CS2 [RU-SKI 43] + CC(C)C[C@H](NC(=O)[C@H](Cc1ccccc1)NC(=O)c1cnccn1)B(O)O [Bortezomib] (partner 0.002 µM)
Procedure, shortened: as §1

[3] = compound: CCc1c2c(nc3ccc(OC(=O)N4CCC(N5CCCCC5)CC4)cc13)-c1cc3c(c(=O)n1C2)COC(=O)[C@]3(O)CC [Irinotecan] + O=C(CCCCCCC(=O)Nc1ccccc1)NO [Vorinostat] (partner 1 µM)
Procedure, shortened: as §1

[4] = compound: Cn1cc(-c2cnc3ccc4ccc(CS(=O)(=O)NCc5ccccn5)cc4c(=O)c3c2)cn1 [MK-8033] + Cc1cc(Nc2cc(N3CCN(C)CC3)nc(Sc3ccc(NC(=O)C4CC4)cc3)n2)n[nH]1 [Tozasertib] (partner 0.1 µM)
Procedure, shortened: as §1

UMC-11
relative viability ([1]; first compound 0.02 µM): 0.988
relative viability ([1]; first compound 0.06325 µM): 0.979
relative viability ([1]; first compound 0.2 µM): 0.958
relative viability ([1]; first compound 0.6325 µM): 0.961
relative viability ([1]; first compound 2 µM): 0.986
relative viability ([2]; first compound 0.1 µM): 0.731
relative viability ([2]; first compound 0.3162 µM): 1.1
relative viability ([2]; first compound 1 µM): 1.05
relative viability ([2]; first compound 3.162 µM): 0.666
relative viability ([2]; first compound 10 µM): 0.927
relative viability ([3]; first compound 0.6325 µM): 0.262
relative viability ([3]; first compound 2 µM): 0.343
relative viability ([3]; first compound 6.325 µM): 0.235
relative viability ([3]; first compound 20 µM): 0.206
relative viability ([4]; first compound 0.02 µM): 0.201
relative viability ([4]; first compound 0.2 µM): 0.193
relative viability ([4]; first compound 0.6325 µM): 0.205
relative viability ([4]; first compound 2 µM): 0.205
